# Test results: patent US20180055032A1, “ODORS FOR PSYLLID TRAPPING, REPELLING AND CONTROL” (The Regents of the University of California, priority 2011, published 2018)
# Tests used:
# Type in all cases: cell-based, Diaphorina citri
# [1] = test system: neuron 4C (rhinarial plate on flagellomere 4); experiment: single-sensillum electrophysiology, odor response of neuron 4C; conditions: for odor response (frequency of action potentials during stimulus minus baseline), 4C: Table 1, odor diluted to 1%, 50 μL in cartridge; as to response to ultra-prolonged activators, 4C: key: 0, no response; +, >50 spikes/second; ++, >100 spikes/second; +++, >150 spikes/second
# [2] = test system: neuron 6A (rhinarial plate on flagellomere 6); experiment: single-sensillum electrophysiology, odor response of neuron 6A; conditions: for odor response (frequency of action potentials during stimulus minus baseline), 6A: Table 1, odor diluted to 1%, 50 μL in cartridge; as to response to ultra-prolonged activators, 6A: key: 0, no response; +, >50 spikes/second; ++, >100 spikes/second; +++, >150 spikes/second
# [3] = test system: neuron 2B (rhinarial plate on flagellomere 2); experiment: single-sensillum electrophysiology, odor response of neuron 2B; conditions: for odor response (frequency of action potentials during stimulus minus baseline), 2B: Table 1, odor diluted to 1%, 50 μL in cartridge
# [4] = test system: neuron 6B (rhinarial plate on flagellomere 6); experiment: single-sensillum electrophysiology, odor response of neuron 6B; conditions: for odor response (frequency of action potentials during stimulus minus baseline), 6B: Table 1, odor diluted to 1%, 50 μL in cartridge
# [5] = test system: neuron 4B (rhinarial plate on flagellomere 4); conditions: for odor response (frequency of action potentials during stimulus minus baseline), 4B: Table 1, odor diluted to 1%, 50 μL in cartridge
# [6] = test system: neuron 7B (rhinarial plate on flagellomere 7); conditions: for odor response (frequency of action potentials during stimulus minus baseline), 7B: Table 1, odor diluted to 1%, 50 μL in cartridge
# [7] = test system: neuron 2C (rhinarial plate on flagellomere 2); experiment: single-sensillum electrophysiology, odor response of neuron 2C; conditions: for odor response (frequency of action potentials during stimulus minus baseline), 2C: Table 1, odor diluted to 1%, 50 μL in cartridge
# [8] = test system: neuron 6C (rhinarial plate on flagellomere 6); experiment: single-sensillum electrophysiology, odor response of neuron 6C; conditions: for odor response (frequency of action potentials during stimulus minus baseline), 6C: Table 1, odor diluted to 1%, 50 μL in cartridge
# [9] = test system: neuron 7A (rhinarial plate on flagellomere 7); experiment: single-sensillum electrophysiology, odor response of neuron 7A; conditions: for odor response (frequency of action potentials during stimulus minus baseline), 7A: Table 1, odor diluted to 1%, 50 μL in cartridge; as to all read-outs here: key: 0, no response; +, >50 spikes/second; ++, >100 spikes/second; +++, >150 spikes/second
# [10] = test system: neuron 7C (rhinarial plate on flagellomere 7); experiment: single-sensillum electrophysiology, odor response of neuron 7C; conditions: for odor response (frequency of action potentials during stimulus minus baseline), 7C: Table 1, odor diluted to 1%, 50 μL in cartridge
# [11] = test system: neuron 4A (rhinarial plate on flagellomere 4); experiment: single-sensillum electrophysiology, odor response of neuron 4A; conditions: for odor response (frequency of action potentials during stimulus minus baseline), 4A: Table 1, odor diluted to 1%, 50 μL in cartridge
# [12] = test system: neuron 2A (rhinarial plate on flagellomere 2); experiment: single-sensillum electrophysiology, odor response of neuron 2A; conditions: for odor response (frequency of action potentials during stimulus minus baseline), 2A: Table 1, odor diluted to 1%, 50 μL in cartridge; as to all read-outs here: key: 0, no response; +, >50 spikes/second; ++, >100 spikes/second; +++, >150 spikes/second
# [13] = Table 3, 10^−2 in paraffin oil, 50 μL, odor puff of 0.5 sec
structure (smiles),measurement,setting,value
CC(C)=CCCC(C)=CC=O [citral],"odor response (frequency of action potentials during stimulus minus baseline), 4C",[1],0
same,"odor response (frequency of action potentials during stimulus minus baseline), 6A",[2],0
same,"odor response (frequency of action potentials during stimulus minus baseline), 2B",[3],0
same,"odor response (frequency of action potentials during stimulus minus baseline), 6B",[4],0
same,"odor response (frequency of action potentials during stimulus minus baseline), 4B",[5],0
same,"odor response (frequency of action potentials during stimulus minus baseline), 7B",[6],0
same,"odor response (frequency of action potentials during stimulus minus baseline), 2C",[7],"++ (++, >100 spikes/second)"
same,"odor response (frequency of action potentials during stimulus minus baseline), 6C",[8],0
same,"odor response (frequency of action potentials during stimulus minus baseline), 7A",[9],0
same,"odor response (frequency of action potentials during stimulus minus baseline), 7C",[10],0
same,"odor response (frequency of action potentials during stimulus minus baseline), 4A",[11],0
same,"odor response (frequency of action potentials during stimulus minus baseline), 2A",[12],0
CC(C)=CCCC(C)CC=O (stereo not drawn) [citronellal],"odor response (frequency of action potentials during stimulus minus baseline), 4C",[1],0
same,"odor response (frequency of action potentials during stimulus minus baseline), 6A",[2],0
same,"odor response (frequency of action potentials during stimulus minus baseline), 2B",[3],0
same,"odor response (frequency of action potentials during stimulus minus baseline), 6B",[4],0
same,"odor response (frequency of action potentials during stimulus minus baseline), 4B",[5],0
same,"odor response (frequency of action potentials during stimulus minus baseline), 7B",[6],0
same,"odor response (frequency of action potentials during stimulus minus baseline), 2C",[7],"+ (+, >50 spikes/second)"
same,"odor response (frequency of action potentials during stimulus minus baseline), 6C",[8],0
same,"odor response (frequency of action potentials during stimulus minus baseline), 7A",[9],0
same,"odor response (frequency of action potentials during stimulus minus baseline), 7C",[10],0
same,"odor response (frequency of action potentials during stimulus minus baseline), 4A",[11],0
same,"odor response (frequency of action potentials during stimulus minus baseline), 2A",[12],0
CCCCCCCCCC=O [decanal],"odor response (frequency of action potentials during stimulus minus baseline), 4C",[1],0
same,"odor response (frequency of action potentials during stimulus minus baseline), 6A",[2],0
same,"odor response (frequency of action potentials during stimulus minus baseline), 2B",[3],0
same,"odor response (frequency of action potentials during stimulus minus baseline), 6B",[4],"++ (++, >100 spikes/second)"
same,"odor response (frequency of action potentials during stimulus minus baseline), 4B",[5],"+++ (+++, >150 spikes/second)"
same,"odor response (frequency of action potentials during stimulus minus baseline), 7B",[6],0
same,"odor response (frequency of action potentials during stimulus minus baseline), 2C",[7],0
same,"odor response (frequency of action potentials during stimulus minus baseline), 6C",[8],0
same,"odor response (frequency of action potentials during stimulus minus baseline), 7A",[9],0
same,"odor response (frequency of action potentials during stimulus minus baseline), 7C",[10],"++ (++, >100 spikes/second)"
same,"odor response (frequency of action potentials during stimulus minus baseline), 4A",[11],0
same,"odor response (frequency of action potentials during stimulus minus baseline), 2A",[12],0
C=CCSSSCC=C [diallyl trisulfide],"odor response (frequency of action potentials during stimulus minus baseline), 4C",[1],0
same,"odor response (frequency of action potentials during stimulus minus baseline), 6A",[2],0
same,"odor response (frequency of action potentials during stimulus minus baseline), 2B",[3],0
same,"odor response (frequency of action potentials during stimulus minus baseline), 6B",[4],"+ (+, >50 spikes/second)"
same,"odor response (frequency of action potentials during stimulus minus baseline), 4B",[5],"+ (+, >50 spikes/second)"
same,"odor response (frequency of action potentials during stimulus minus baseline), 7B",[6],0
same,"odor response (frequency of action potentials during stimulus minus baseline), 2C",[7],0
same,"odor response (frequency of action potentials during stimulus minus baseline), 6C",[8],0
same,"odor response (frequency of action potentials during stimulus minus baseline), 7A",[9],0
same,"odor response (frequency of action potentials during stimulus minus baseline), 7C",[10],0
same,"odor response (frequency of action potentials during stimulus minus baseline), 4A",[11],0
same,"odor response (frequency of action potentials during stimulus minus baseline), 2A",[12],0
CCCSSCCC [dipropyl disulfide],"odor response (frequency of action potentials during stimulus minus baseline), 4C",[1],0
same,"odor response (frequency of action potentials during stimulus minus baseline), 6A",[2],0
same,"odor response (frequency of action potentials during stimulus minus baseline), 2B",[3],0
same,"odor response (frequency of action potentials during stimulus minus baseline), 6B",[4],"++ (++, >100 spikes/second)"
same,"odor response (frequency of action potentials during stimulus minus baseline), 4B",[5],"+ (+, >50 spikes/second)"
same,"odor response (frequency of action potentials during stimulus minus baseline), 7B",[6],0
same,"odor response (frequency of action potentials during stimulus minus baseline), 2C",[7],0
same,"odor response (frequency of action potentials during stimulus minus baseline), 6C",[8],0
same,"odor response (frequency of action potentials during stimulus minus baseline), 7A",[9],0
same,"odor response (frequency of action potentials during stimulus minus baseline), 7C",[10],0
same,"odor response (frequency of action potentials during stimulus minus baseline), 4A",[11],0
same,"odor response (frequency of action potentials during stimulus minus baseline), 2A",[12],0
CCCC(=O)OCC [ethyl butyrate],"odor response (frequency of action potentials during stimulus minus baseline), 4C",[1],0
same,"odor response (frequency of action potentials during stimulus minus baseline), 6A",[2],0
same,"odor response (frequency of action potentials during stimulus minus baseline), 2B",[3],0
same,"odor response (frequency of action potentials during stimulus minus baseline), 6B",[4],"++ (++, >100 spikes/second)"
same,"odor response (frequency of action potentials during stimulus minus baseline), 4B",[5],"+++ (+++, >150 spikes/second)"
same,"odor response (frequency of action potentials during stimulus minus baseline), 7B",[6],0
same,"odor response (frequency of action potentials during stimulus minus baseline), 2C",[7],"+ (+, >50 spikes/second)"
same,"odor response (frequency of action potentials during stimulus minus baseline), 6C",[8],0
same,"odor response (frequency of action potentials during stimulus minus baseline), 7A",[9],0
same,"odor response (frequency of action potentials during stimulus minus baseline), 7C",[10],"++ (++, >100 spikes/second)"
same,"odor response (frequency of action potentials during stimulus minus baseline), 4A",[11],0
same,"odor response (frequency of action potentials during stimulus minus baseline), 2A",[12],0
CC(=O)OCC(C)C [isobutyl acetate],"odor response (frequency of action potentials during stimulus minus baseline), 4C",[1],0
same,"odor response (frequency of action potentials during stimulus minus baseline), 6A",[2],0
same,"odor response (frequency of action potentials during stimulus minus baseline), 2B",[3],0
same,"odor response (frequency of action potentials during stimulus minus baseline), 6B",[4],"++ (++, >100 spikes/second)"
same,"odor response (frequency of action potentials during stimulus minus baseline), 4B",[5],"++ (++, >100 spikes/second)"
same,"odor response (frequency of action potentials during stimulus minus baseline), 7B",[6],0
same,"odor response (frequency of action potentials during stimulus minus baseline), 2C",[7],0
same,"odor response (frequency of action potentials during stimulus minus baseline), 6C",[8],0
same,"odor response (frequency of action potentials during stimulus minus baseline), 7A",[9],0
same,"odor response (frequency of action potentials during stimulus minus baseline), 7C",[10],0
same,"odor response (frequency of action potentials during stimulus minus baseline), 4A",[11],0
same,"odor response (frequency of action potentials during stimulus minus baseline), 2A",[12],0
CCCC(=O)OC [methyl butyrate],"odor response (frequency of action potentials during stimulus minus baseline), 4C",[1],0
same,"odor response (frequency of action potentials during stimulus minus baseline), 6A",[2],0
same,"odor response (frequency of action potentials during stimulus minus baseline), 2B",[3],0
same,"odor response (frequency of action potentials during stimulus minus baseline), 6B",[4],"+ (+, >50 spikes/second)"
same,"odor response (frequency of action potentials during stimulus minus baseline), 4B",[5],"++ (++, >100 spikes/second)"
same,"odor response (frequency of action potentials during stimulus minus baseline), 7B",[6],0
same,"odor response (frequency of action potentials during stimulus minus baseline), 2C",[7],0
same,"odor response (frequency of action potentials during stimulus minus baseline), 6C",[8],0
same,"odor response (frequency of action potentials during stimulus minus baseline), 7A",[9],0
same,"odor response (frequency of action potentials during stimulus minus baseline), 7C",[10],"+ (+, >50 spikes/second)"
same,"odor response (frequency of action potentials during stimulus minus baseline), 4A",[11],0
same,"odor response (frequency of action potentials during stimulus minus baseline), 2A",[12],0
C=CC(=C)CCC=C(C)C [myrcene],"odor response (frequency of action potentials during stimulus minus baseline), 4C",[1],0
same,"odor response (frequency of action potentials during stimulus minus baseline), 6A",[2],0
same,"odor response (frequency of action potentials during stimulus minus baseline), 2B",[3],0
same,"odor response (frequency of action potentials during stimulus minus baseline), 6B",[4],"+ (+, >50 spikes/second)"
same,"odor response (frequency of action potentials during stimulus minus baseline), 4B",[5],"+ (+, >50 spikes/second)"
same,"odor response (frequency of action potentials during stimulus minus baseline), 7B",[6],0
same,"odor response (frequency of action potentials during stimulus minus baseline), 2C",[7],"++ (++, >100 spikes/second)"
same,"odor response (frequency of action potentials during stimulus minus baseline), 6C",[8],0
same,"odor response (frequency of action potentials during stimulus minus baseline), 7A",[9],0
same,"odor response (frequency of action potentials during stimulus minus baseline), 7C",[10],0
same,"odor response (frequency of action potentials during stimulus minus baseline), 4A",[11],0
same,"odor response (frequency of action potentials during stimulus minus baseline), 2A",[12],0
CCCCCCCCC=O [nonanal],"odor response (frequency of action potentials during stimulus minus baseline), 4C",[1],0
same,"response to ultra-prolonged activators, 4C",[1]; [13],0
same,"odor response (frequency of action potentials during stimulus minus baseline), 6A",[2],0
same,"response to ultra-prolonged activators, 6A",[2]; [13],0
same,"odor response (frequency of action potentials during stimulus minus baseline), 2B",[3],0
same,"response to ultra-prolonged activators, 2B",[3]; [13],0
same,"odor response (frequency of action potentials during stimulus minus baseline), 6B",[4],"++ (++, >100 spikes/second)"
same,"response to ultra-prolonged activators, 6B",[4]; [13],"++ (++, >100 spikes/second)"
same,"odor response (frequency of action potentials during stimulus minus baseline), 4B",[5],"++ (++, >100 spikes/second)"
same,"response to ultra-prolonged activators, 4B",[5]; [13],"++ (++, >100 spikes/second)"
same,"odor response (frequency of action potentials during stimulus minus baseline), 7B",[6],0
same,"response to ultra-prolonged activators, 7B",[6]; [13],0
same,"odor response (frequency of action potentials during stimulus minus baseline), 2C",[7],0
same,"response to ultra-prolonged activators, 2C",[7]; [13],0
same,"odor response (frequency of action potentials during stimulus minus baseline), 6C",[8],0
same,"response to ultra-prolonged activators, 6C",[8]; [13],0
same,"odor response (frequency of action potentials during stimulus minus baseline), 7A",[9],0
same,"response to ultra-prolonged activators, 7A",[9]; [13],0
same,"odor response (frequency of action potentials during stimulus minus baseline), 7C",[10],"++ (++, >100 spikes/second)"
same,"response to ultra-prolonged activators, 7C",[10]; [13],"++ (++, >100 spikes/second)"
same,"odor response (frequency of action potentials during stimulus minus baseline), 4A",[11],0
same,"response to ultra-prolonged activators, 4A",[11]; [13],0
same,"odor response (frequency of action potentials during stimulus minus baseline), 2A",[12],0
same,"response to ultra-prolonged activators, 2A",[12]; [13],0
